Legend:
[1] = system: xylene-induced swelling of the mouse right ear (二甲苯所致的小鼠右耳肿胀); experiment: 二甲苯致小鼠耳肿胀抗炎试验 (xylene-induced mouse ear swelling test); type: in vivo; conditions: oral gavage; for inhibition of xylene-induced right ear swelling (in words) / swelling degree compared with aspirin (in words): used alone, 10mg/kg; for swelling degree compared with aspirin (in words): versus aspirin 150mg/kg
Hep-2 cells (Hep-2细胞) = type: cell-based; conditions: 3 days, MTT

Row | Structure (SMILES) | swelling degree ([1]; aspirin 150mg/kg, once daily for 5 days, xylene 50μL on right ear 1h after last dose, ears weighed 1h later) | anti-inflammatory effect compared between aspirin and test substances (in words) ([1]; aspirin 150mg/kg, test substances 10mg/kg, 5 days) | inhibition of xylene-induced right ear swelling (in words) ([1]; 5 days) | swelling degree compared with aspirin (in words) ([1]; 5 days) | CC50 compared with the three-component combination (in words) (Hep-2 cells (Hep-2细胞))
1 | CC(=O)Oc1ccccc1C(=O)O [阿司匹林, reference compound] | 8.56 mg | 优于蟾毒灵、酯蟾毒配基或远华蟾蜍精 |  |  | 
2 | C[C@]12CC[C@H](O)C[C@H]1CC[C@@H]1[C@@H]2CC[C@]2(C)[C@@H](c3ccc(=O)oc3)CC[C@]12O [蟾毒灵] |  |  | 能够抑制二甲苯所致的小鼠右耳肿胀 | 肿胀度大于阳性对照药阿司匹林 | 远远小于蟾毒灵、酯蟾毒配基以及远华蟾蜍精三者的组合
3 | C[C@]12CC[C@H](O)C[C@@]1(O)CC[C@@H]1[C@@H]2CC[C@]2(C)[C@@H](c3ccc(=O)oc3)CC[C@]12O [远华蟾蜍精] |  |  | 能够抑制二甲苯所致的小鼠右耳肿胀 | 肿胀度大于阳性对照药阿司匹林 | 远远小于蟾毒灵、酯蟾毒配基以及远华蟾蜍精三者的组合
4 | C[C@]12CC[C@H](O)C[C@H]1CC[C@@H]1[C@@H]2CC[C@]2(C)[C@@H](c3ccc(=O)oc3)C[C@H]3O[C@]132 [酯蟾毒配基] |  |  | 能够抑制二甲苯所致的小鼠右耳肿胀 | 肿胀度大于阳性对照药阿司匹林 | 远远小于蟾毒灵、酯蟾毒配基以及远华蟾蜍精三者的组合

Source: patent publication CN107308170A, “药物联用在制备抗炎药物中的应用以及抗炎药物组合物” (priority 2017, dated 2017)
